From ChEMBL document CHEMBL5696442, “Discovery of type II inhibitors of TGFβ-activated kinase 1 (TAK1) and mitogen-activated protein kinase kinase kinase kinase 2 (MAP4K2)” (J Med Chem, 2015)
Active and inactive are the calls of the source. The calls are words filed in the database; no cut-off is given here.

Legend:
RAW = test: Inhibition of LPS induced p38 phosphorylation in mouse RAW cells preincubated for 1 hr followed by LPS stimulation and measured after 30 mins by Western blot analysis; format: functional, cell-based; conditions: dose 0.01-10 µM
[1] = target: Calcium/calmodulin-dependent protein kinase type II subunit alpha (Homo sapiens) (UniProt Q9UQM7); test: Inhibition of CAMK2A (unknown origin) at 10 uM by Ambit Kinomescan binding assay
[2] = target: T1, Myotonin-protein kinase (Homo sapiens) (UniProt Q09013); test: Inhibition of DMPK (unknown origin) at 10 uM by Ambit Kinomescan binding assay
T1 sequence (whole entry): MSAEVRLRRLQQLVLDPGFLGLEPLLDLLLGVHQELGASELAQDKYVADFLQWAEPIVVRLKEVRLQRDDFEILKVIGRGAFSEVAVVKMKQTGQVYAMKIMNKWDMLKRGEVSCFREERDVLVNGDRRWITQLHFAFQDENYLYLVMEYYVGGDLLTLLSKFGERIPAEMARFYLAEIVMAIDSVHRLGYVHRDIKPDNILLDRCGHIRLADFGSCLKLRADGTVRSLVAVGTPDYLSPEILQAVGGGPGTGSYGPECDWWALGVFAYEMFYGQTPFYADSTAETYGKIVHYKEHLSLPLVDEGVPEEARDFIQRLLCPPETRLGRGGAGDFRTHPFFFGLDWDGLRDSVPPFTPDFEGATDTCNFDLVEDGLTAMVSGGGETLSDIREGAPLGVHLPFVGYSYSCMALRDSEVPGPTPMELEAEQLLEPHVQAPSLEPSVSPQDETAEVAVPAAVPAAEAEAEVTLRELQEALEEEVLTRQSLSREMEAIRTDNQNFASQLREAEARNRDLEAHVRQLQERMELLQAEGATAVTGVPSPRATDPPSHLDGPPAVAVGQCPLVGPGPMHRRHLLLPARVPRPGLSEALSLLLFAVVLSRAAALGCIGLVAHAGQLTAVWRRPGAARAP

[3] = target: Macrophage-stimulating protein receptor (Homo sapiens) (UniProt Q04912); test: Inhibition of MST1R (unknown origin) at 10 uM by Ambit Kinomescan binding assay
[4] = target: Serine/threonine-protein kinase Nek7 (Homo sapiens) (UniProt Q8TDX7); test: Inhibition of NEK7 (unknown origin) at 10 uM by Ambit Kinomescan binding assay
[5] = target: Serine/threonine-protein kinase PAK 3 (Homo sapiens) (UniProt O75914); test: Inhibition of PAK3 (unknown origin) at 10 uM by Ambit Kinomescan binding assay
[6] = target: Cyclin-dependent kinase 17 (Homo sapiens) (UniProt Q00537); test: Inhibition of PCTAIRE2 Lys1 labeling site harbouring SKLTENLVALKEIR in human A-375 cells at 0.05 uM by KiNativ Profiling analysis relative to control; format: cell-based
[7] = target: Mitogen-activated protein kinase kinase kinase kinase 4 (Homo sapiens, UniProt O95819); test: Inhibition of ZC1/HGK K2 labeling site in human Huh-7 cells at 10 uM by KiNativ Profiling analysis relative to control; format: cell-based
[8] = target: TRAF2 and NCK-interacting protein kinase (Homo sapiens) (UniProt Q9UKE5); test: Inhibition of TNIK K1 labeling site in human Huh-7 cells at 10 uM by KiNativ Profiling analysis relative to control; format: cell-based
[9] = target: Microtubule-associated serine/threonine-protein kinase 1 (Homo sapiens) (UniProt Q9Y2H9); test: Inhibition of MAST1 Lys2 labeling site in human A-375 cells at 5 uM by KiNativ Profiling analysis relative to control
[10] = target: Mitogen-activated protein kinase 14 (Homo sapiens, UniProt Q16539); test: Inhibition of p38 alpha Lys2 labeling site in human A-375 cells at 0.5 uM by KiNativ Profiling analysis relative to control; format: cell-based
[11] = target: Cyclin-dependent kinase 8 (Homo sapiens) (UniProt P49336); test: Inhibition of CDK8 (unknown origin) at 1 uM by Ambit Kinomescan binding assay relative to control
[12] = test system: Mast/stem cell growth factor receptor Kit (Homo sapiens), P10721 [V559D]; test: Inhibition of KIT V559D mutant (unknown origin) at 1 uM by Ambit Kinomescan binding assay relative to control; values are per cent of control
[13] = target: T2, Aurora kinase A (Homo sapiens) (UniProt O14965); test: Inhibition of AurA Lys2 labeling site in human Huh-7 cell lysate at 1 uM by KiNativ Profiling analysis relative to control; format: subcellular
T2 sequence (whole entry): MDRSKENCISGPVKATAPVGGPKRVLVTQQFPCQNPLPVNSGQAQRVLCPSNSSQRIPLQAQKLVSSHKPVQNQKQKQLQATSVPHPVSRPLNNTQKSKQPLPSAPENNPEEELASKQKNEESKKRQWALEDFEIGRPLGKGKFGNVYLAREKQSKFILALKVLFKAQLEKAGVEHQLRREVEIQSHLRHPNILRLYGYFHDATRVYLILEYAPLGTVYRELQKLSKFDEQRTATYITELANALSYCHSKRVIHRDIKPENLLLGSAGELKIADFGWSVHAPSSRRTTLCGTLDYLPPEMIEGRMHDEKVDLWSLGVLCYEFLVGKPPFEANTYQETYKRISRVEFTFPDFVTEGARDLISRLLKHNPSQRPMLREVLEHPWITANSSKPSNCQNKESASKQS

[14] = target: Phosphatidylinositol 4-kinase beta (Homo sapiens) (UniProt Q9UBF8); test: Inhibition of PI4KB ATP labeling site harbouring VPHTQAVVLNSKDK in human Huh-7 cell lysate at 1 uM by KiNativ Profiling analysis relative to control; format: subcellular
[15] = target: T3, Serine/threonine-protein kinase Sgk3 (Homo sapiens) (UniProt Q96BR1); test: Inhibition of SGK3 Lys1 labeling site in human Huh-7 cell lysate at 1 uM by KiNativ Profiling analysis relative to control; format: subcellular
T3 sequence (whole entry): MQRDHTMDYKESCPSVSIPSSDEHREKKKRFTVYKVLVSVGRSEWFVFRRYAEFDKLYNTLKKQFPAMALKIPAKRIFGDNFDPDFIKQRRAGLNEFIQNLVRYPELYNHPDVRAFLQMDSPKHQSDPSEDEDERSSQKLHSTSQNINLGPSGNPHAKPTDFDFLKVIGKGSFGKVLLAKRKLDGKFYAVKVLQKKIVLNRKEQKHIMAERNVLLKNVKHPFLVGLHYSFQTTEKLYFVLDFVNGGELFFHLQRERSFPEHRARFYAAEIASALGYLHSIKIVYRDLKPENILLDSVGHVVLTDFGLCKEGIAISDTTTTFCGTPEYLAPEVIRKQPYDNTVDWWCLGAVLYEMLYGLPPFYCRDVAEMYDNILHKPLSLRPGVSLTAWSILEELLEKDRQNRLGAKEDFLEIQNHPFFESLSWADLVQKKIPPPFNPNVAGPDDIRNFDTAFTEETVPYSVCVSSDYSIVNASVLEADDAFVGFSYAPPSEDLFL

Cyclin-dependent kinase 8 (Homo sapiens), sequence (P49336 whole entry): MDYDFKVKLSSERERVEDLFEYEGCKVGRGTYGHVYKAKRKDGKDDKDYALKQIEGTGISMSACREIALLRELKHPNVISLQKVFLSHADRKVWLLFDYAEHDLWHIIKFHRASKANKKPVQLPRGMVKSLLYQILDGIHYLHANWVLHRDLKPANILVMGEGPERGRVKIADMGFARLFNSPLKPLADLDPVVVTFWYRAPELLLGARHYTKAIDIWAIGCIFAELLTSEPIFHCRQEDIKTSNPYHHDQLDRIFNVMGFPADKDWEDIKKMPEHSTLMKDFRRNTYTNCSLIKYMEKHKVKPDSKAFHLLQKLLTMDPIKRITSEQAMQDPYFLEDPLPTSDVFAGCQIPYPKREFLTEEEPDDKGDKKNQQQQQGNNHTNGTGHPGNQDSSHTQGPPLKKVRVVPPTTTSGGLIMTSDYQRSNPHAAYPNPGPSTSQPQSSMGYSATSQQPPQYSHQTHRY
Serine/threonine-protein kinase Nek7 (Homo sapiens), sequence (Q8TDX7 whole entry, looked up): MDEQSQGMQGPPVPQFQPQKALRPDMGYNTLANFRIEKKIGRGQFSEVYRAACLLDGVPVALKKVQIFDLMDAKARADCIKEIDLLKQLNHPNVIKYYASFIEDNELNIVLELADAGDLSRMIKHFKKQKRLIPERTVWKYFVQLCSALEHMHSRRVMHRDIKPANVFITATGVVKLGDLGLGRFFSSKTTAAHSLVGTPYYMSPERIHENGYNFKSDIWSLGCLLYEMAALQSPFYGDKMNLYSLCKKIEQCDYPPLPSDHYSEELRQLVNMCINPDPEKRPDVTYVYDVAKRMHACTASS
Microtubule-associated serine/threonine-protein kinase 1 (Homo sapiens), sequence (Q9Y2H9 whole entry, looked up): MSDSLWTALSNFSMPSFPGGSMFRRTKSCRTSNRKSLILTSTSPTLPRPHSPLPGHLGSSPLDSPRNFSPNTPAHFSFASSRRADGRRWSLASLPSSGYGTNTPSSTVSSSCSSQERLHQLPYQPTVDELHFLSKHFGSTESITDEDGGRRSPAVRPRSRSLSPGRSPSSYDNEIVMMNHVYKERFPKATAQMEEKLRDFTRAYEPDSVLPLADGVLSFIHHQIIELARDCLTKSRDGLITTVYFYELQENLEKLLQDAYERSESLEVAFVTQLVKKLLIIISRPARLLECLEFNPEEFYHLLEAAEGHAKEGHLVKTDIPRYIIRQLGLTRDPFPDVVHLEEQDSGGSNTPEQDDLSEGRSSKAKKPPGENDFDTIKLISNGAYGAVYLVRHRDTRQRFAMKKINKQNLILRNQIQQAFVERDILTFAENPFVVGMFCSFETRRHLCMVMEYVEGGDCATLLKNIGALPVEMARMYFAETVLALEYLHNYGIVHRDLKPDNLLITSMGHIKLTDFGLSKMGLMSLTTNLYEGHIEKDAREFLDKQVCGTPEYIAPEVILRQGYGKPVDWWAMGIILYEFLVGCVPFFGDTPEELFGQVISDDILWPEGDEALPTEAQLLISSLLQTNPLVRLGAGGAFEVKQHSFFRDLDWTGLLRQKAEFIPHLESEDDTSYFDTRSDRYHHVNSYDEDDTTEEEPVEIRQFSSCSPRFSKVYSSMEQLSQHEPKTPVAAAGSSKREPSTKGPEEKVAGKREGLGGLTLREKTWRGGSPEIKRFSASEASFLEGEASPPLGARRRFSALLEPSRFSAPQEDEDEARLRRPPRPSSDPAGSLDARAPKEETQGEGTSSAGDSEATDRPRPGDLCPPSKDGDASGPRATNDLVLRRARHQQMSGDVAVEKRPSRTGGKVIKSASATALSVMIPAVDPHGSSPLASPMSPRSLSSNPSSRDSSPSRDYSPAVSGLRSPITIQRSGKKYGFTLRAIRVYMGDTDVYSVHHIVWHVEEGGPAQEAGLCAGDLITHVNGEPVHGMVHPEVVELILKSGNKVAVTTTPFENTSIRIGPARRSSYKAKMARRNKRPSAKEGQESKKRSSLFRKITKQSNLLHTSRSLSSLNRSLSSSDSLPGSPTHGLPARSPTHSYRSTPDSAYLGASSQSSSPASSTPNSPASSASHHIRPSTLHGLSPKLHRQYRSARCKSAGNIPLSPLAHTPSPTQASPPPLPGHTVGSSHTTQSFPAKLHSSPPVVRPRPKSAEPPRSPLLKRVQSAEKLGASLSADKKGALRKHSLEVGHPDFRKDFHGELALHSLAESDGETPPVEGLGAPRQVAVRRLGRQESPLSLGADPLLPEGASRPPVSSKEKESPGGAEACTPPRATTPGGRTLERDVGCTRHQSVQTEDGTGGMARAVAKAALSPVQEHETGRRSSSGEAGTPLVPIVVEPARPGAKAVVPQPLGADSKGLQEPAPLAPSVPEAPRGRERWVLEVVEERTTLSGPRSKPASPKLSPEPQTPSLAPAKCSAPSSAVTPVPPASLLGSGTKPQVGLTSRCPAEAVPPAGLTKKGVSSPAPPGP
Mitogen-activated protein kinase 14, sequence (Q16539 whole entry): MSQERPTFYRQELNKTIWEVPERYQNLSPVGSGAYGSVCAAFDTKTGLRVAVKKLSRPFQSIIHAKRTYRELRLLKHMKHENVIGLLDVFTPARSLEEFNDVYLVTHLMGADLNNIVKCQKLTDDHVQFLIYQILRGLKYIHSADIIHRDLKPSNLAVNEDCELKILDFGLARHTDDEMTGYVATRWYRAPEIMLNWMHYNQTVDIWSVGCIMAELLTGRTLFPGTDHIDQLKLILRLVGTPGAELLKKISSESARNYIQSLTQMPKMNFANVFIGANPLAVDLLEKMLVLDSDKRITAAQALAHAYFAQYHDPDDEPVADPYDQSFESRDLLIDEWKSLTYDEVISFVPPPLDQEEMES
TRAF2 and NCK-interacting protein kinase (Homo sapiens), sequence (Q9UKE5 whole entry, looked up): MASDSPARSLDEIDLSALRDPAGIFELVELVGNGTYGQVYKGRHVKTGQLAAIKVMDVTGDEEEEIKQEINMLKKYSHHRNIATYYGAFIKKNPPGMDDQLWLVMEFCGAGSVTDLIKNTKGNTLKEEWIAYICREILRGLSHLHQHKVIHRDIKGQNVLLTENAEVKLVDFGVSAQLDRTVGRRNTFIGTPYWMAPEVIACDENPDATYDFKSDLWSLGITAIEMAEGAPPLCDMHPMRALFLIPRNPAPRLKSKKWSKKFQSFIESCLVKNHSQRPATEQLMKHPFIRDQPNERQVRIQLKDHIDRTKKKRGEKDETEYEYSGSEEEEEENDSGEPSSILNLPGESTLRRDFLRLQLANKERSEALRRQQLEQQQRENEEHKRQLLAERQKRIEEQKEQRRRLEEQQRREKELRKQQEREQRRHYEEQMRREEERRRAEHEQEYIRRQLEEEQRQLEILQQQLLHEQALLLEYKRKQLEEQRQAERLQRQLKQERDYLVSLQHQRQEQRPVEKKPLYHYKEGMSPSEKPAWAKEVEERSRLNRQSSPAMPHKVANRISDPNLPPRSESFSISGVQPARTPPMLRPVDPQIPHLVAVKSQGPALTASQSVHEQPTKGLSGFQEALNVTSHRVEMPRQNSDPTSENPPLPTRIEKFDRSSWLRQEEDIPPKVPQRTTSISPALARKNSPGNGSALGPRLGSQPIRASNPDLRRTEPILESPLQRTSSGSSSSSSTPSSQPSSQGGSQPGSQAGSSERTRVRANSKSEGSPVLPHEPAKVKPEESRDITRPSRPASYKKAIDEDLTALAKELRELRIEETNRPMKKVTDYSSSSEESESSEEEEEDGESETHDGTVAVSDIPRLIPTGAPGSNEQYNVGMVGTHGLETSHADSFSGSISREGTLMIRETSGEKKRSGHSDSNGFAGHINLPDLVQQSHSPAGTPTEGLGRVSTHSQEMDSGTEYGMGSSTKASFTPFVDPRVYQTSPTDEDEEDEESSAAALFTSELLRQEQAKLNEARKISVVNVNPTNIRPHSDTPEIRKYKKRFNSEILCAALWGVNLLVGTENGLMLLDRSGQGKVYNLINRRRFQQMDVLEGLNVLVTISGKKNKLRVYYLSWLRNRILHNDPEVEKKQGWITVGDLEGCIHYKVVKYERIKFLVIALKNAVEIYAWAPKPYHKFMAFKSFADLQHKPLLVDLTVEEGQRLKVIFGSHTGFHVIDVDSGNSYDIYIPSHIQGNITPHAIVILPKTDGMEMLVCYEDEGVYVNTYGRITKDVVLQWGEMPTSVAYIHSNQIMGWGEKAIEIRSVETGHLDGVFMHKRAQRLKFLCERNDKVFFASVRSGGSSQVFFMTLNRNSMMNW
Phosphatidylinositol 4-kinase beta (Homo sapiens), sequence (Q9UBF8 2-816 limits assumed): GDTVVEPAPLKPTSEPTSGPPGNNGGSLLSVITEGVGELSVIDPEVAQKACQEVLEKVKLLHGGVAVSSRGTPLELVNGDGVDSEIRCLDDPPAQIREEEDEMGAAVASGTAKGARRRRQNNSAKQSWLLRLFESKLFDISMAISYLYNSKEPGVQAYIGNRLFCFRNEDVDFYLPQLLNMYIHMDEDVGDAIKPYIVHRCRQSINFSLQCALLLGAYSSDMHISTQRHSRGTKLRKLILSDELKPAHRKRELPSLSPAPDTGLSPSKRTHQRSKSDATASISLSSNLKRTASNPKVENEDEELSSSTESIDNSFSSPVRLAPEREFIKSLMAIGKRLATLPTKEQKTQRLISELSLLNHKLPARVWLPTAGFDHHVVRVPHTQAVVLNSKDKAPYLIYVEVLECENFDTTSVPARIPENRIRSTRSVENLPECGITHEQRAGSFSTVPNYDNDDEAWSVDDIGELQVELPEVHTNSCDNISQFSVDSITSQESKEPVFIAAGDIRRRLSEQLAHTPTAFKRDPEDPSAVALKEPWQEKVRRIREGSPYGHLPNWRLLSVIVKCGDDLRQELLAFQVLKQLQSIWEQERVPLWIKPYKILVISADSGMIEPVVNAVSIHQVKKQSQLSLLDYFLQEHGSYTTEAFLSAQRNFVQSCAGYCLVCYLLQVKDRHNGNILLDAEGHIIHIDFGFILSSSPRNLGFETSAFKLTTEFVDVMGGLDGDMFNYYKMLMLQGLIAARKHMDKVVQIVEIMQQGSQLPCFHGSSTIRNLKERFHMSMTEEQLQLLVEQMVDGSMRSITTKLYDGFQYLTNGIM

CCN1CCN(Cc2ccc(NC(=O)c3ccc(C)c(Oc4ccnc5[nH]ccc45)c3)cc2C(F)(F)F)CC1
inhibition (RAW): Dose-Dependent Effect | inhibition [1]: inactive | inhibition [2]: inactive | inhibition [3]: inactive | inhibition [4]: inactive | inhibition [5]: inactive | inhibition [6]: 2.5% | inhibition [7]: 72.6% | inhibition [8]: 74.5% | inhibition [9]: -6.1%

CCN1CCN(Cc2ccc(NC(=O)c3ccc(C)c(/C=C/c4cnc5[nH]ccc5c4OC)c3)cc2C(F)(F)F)CC1
inhibition [10]: 59.5% | inhibition [11]: 25% | residual activity [12]: 0.05%

CNc1cc(Oc2cc(C(=O)Nc3cc(N4CCN(C)CC4)cc(C(F)(F)F)c3)ccc2C)ncn1
inhibition [13]: 6.6% | inhibition [14]: 1.9% | inhibition [15]: 3.5%
